Data from patent publication US20260015574A1, “METHODS FOR SHORTENING LAG PHASE DURATION IN MICROORGANISMS” (YEDA RESEARCH AND DEVELOPMENT CO. LTD., priority 2022, published 2026).

Legend:
[1] = system: E. coli; test: Lag phase shortening in E. coli; format: cell-based, Escherichia coli; settings: treatment with algal metabolites
Description: To explore whether lag phase shortening is a general mechanism among bacteria, the inventors tested the effect of methylated compounds in bacteria with different lifestyles. […] Since methylated compounds are a hallmark of photosynthesizing organisms, the inventors next tested a variety of bacteria that are plant-associated. […] Finally, to establish the prevalence of lag phase shortening among bacteria, the inventors tested the model bacterium E. coli. This bacterium is not commonly found associated with photosynthesizing organisms, and thus, is unlikely to respond to algal metabolites. […] The synchrony between specific compounds and different groups of bacteria may reflect the natural context […].

[2] = system: P. inhibens Δbmt mutant; test: Growth and lag phase shortening in Δbmt mutant; format: cell-based, Phaeobacter inhibens; settings: 2 μM DMSP, minimal media with or without 200 μM methionine
Method: (§1) For creation of P. inhibens knockout cells, ˜1,000 bp regions upstream and downstream of the gene of interest were amplified by PCR (Phusion High-Fidelity DNA polymerase, Thermo Scientific), using primers that added homologous regions to gentamycin or kanamycin resistance markers. The fragments were assembled and cloned into the TOPOII vector (Invitrogen) using restriction-free cloning (Peleg Y. & Unger T., 2014), generating a knockout (KO) plasmid. P. inhibens electrocompetent cells (300 μl) were transformed with 10 μg of the constructed KO plasmid by a pulse of 1.8 kV (Bio Rad). Cells were selected on ½YTSS agar plates containing 30 μg/ml gentamycin or 150 μg/ml kanamycin. Successful knockouts in single cell clones were verified by PCR and sanger sequencing.

[3] = system: P. inhibens ΔmetE mutant; test: Lag phase shortening in ΔmetE mutant; format: cell-based, Phaeobacter inhibens; settings: 2 μM DMSP, minimal media
Method: as §1
P. inhibens harbors another methionine synthase encoded by metE (FIGS. 1C and 4; gene 65). To test the possible contribution of this enzyme to lag phase shortening the inventors knocked-out the gene and examined the performance of the mutant strain. […] To further rule out the involvement of MetE in lag phase shortening, the inventors perturbed the function of MetE using an inhibitor of its methyl donor. To produce methionine, MetE utilizes 5-methyl-tetrahydrofolate (THF) as a methyl donor (Pejchal and Ludwig, 2005). THF is central in the process of bacterial nucleotide production (Quinlivan et al., 2000).

[4] = system: methyl group metabolism pathway genes of P. inhibens; test: Lag phase transcriptome (dual RNA-sequencing) of DMSP-treated bacteria; format: cell-based, Phaeobacter inhibens; settings: 50 μM DMSP, within the first 15 min and 40 min of the lag phase, vs untreated
Method: The bacterium P. inhibens DSM 17395 was co-cultivated with the alga Emiliania huxleyi CCMP3266 (purchased from Bigelow Laboratory for Ocean Sciences, East Boothbay, ME) to investigate the metabolic response of the bacterium in the presence of algae, compared to bacteria grown as pure culture with 2 mM glucose. The analysis was conducted using a dual RNA-Sequencing method adapted from Avraham et al. 2016. The adapted method was previously described by Sperfeld et al., 2021. […] The resulting gene expression data, together with data from public databases (BioCyc and KEGG), were used to reconstruct the methyl group metabolism in P. inhibens DSM 17395 (FIG. 1C). The same dual RNA-sequencing method was used to identify genes that are differentially expressed during the lag phase of P. inhibens pure cultures treated with 50 μM DMSP, compared to control cultures without added DMSP (FIGS. 10A, and 11A-11B).
To further elucidate the fate of methyl groups, the inventors analyzed the transcriptome of DMSP-treated P. inhibens bacteria during the lag phase, and compared it to untreated control cultures. […] To further establish that DMSP methyl groups are assimilated via the methionine cycle, the inventors measured the methionine synthesis activity in protein crude extracts of stationary bacterial cells, using a biochemical assay followed by LC/MS analysis. […]

[5] = system: Bacillus subtilis strain 168; test: Lag phase shortening in B. subtilis; format: cell-based; settings: 2 μM compound
Method: The bacterial strain Phaeobacter inhibens DSM 17395 was purchased from the German collection of microorganisms and cell cultures (DSMZ, Braunschweig, Germany) and stored at −80° C. with 20% glycerol. Routine cultivation of P. inhibens was conducted at 30° C. in artificial seawater medium (ASW) based on Goyet and Poisson (1989). The ASW medium contained mineral salts (NaCl, 409.41 mM; Na2SO4, 28.22 mM; KCl, 9.08 mM; KBr, 0.82 mM; NaF, 0.07 mM; Na2CO3, 0.20 mM; NaHCO3, 2 mM; MgCl2, 50.66 mM; SrCl2, 0.09 mM), L1 vitamins (thiamine HCl, 100 μg/L; biotin, 0.5 μg/L; vitamin B12, […]), L1 trace elements (Na2EDTA·2H2O, 4.36 mg/L; FeCl3·6H2O, 3.15 mg/L; MnCl2·4H2O, 178.1 μg/L; ZnSO4·7H2O, 23.0 μg/L; CoCl2·6H2O, 11.9 μg/L; CuSO4·5H2O, 2.5 μg/L; Na2MoO4·2H2O, 19.9 μg/L; H2SeO3, 1.29 μg/L; NiSO4·6H2O, 2.63 μg/L; Na3 VO4, 1.84 μg/L; K2CrO4, 1.94 μg/L), and L1 nutrients (NaNO3, 882 μM; NaH2PO4, 36.22 μM). ASW was adjusted to pH 8 using HCl. If not otherwise stated, the medium was further supplemented with a source of carbon (glucose, 1 mM), nitrogen (NH4Cl, 5 mM), and sulfur (Na2SO4, 33 mM), referred to as ASW+CNS. Methylated effector compounds (e.g., donors) were administered at 1 or 2 μM in routine assays, or in higher concentrations as stated. The bacterium Bacillus subtilis strain 168 was cultivated in M9 Medium (Na2HPO4, 6 g/L; KH2PO4, 3 g/L; NaCl, 0.5 g/L; NH4CL, 1 g/L; CaCl2), 100 µM; MgSO4, 1 mM; Thiamine, 5 mg/L; EDTA, 50 mg/L; FcCl3, 4.98 mg/L; ZnCl2, 0.84 mg/L; CuCl2·2H2O, 0.13 mg/L; CoCl2·6H2O, 0.1 mg/L; H3BO3, 0.1 mg/L; MnCl2·4H2O, 0.016 mg/L; pH 7.1) with 20 mM glucose. Other bacterial strains tested for lag phase shortening were isolated from the marine environment (Despotović et al., 2021), and cultivated in ASW+CNS. A 96-well Tecan Infinite M Plex plate reader was used for high-resolution monitoring of bacterial growth dynamics at 30° C. […] The growth of bacteria in co-culture with algae was monitored by counting colony forming units (CFU) on ½ YTSS agar plates. The growth of algae was monitored with a CellStream flow cytometer (Merck, Darmstadt, Germany). […]

SMILES: C[S+](C)CCC(=O)[O-] [DMSP, dimethylsulfoniopropionate]
- lag phase shortening [1]: did not shorten the lag phase
- lag phase shortening [2]: did not induce lag phase shortening
- lag phase shortening [3]: exhibited lag phase shortening similar to wild-type bacteria
- expression of the methyl group metabolism pathway [4]: upregulated
- lag phase shortening [5]: induction of the lag phase shortening
